# Paper PMC10034449, “FDA-approved Abl/EGFR/PDGFR kinase inhibitors show potent efficacy against pandemic and seasonal influenza A virus infections of human lung explants” (iScience, 2023)
# Where “and” joins values, the source holds several entries; their conditions need not be identical. Equal values may be shown once.
# What was measured:
# NL09 or NL11 [1] = format: cell-based, influenza A virus
# NL09 or NL11 [2] = format: cell-based, influenza A virus; remark: listed apart in the source
# [3] = tested on: A/Netherlands/602/09 (H1N1) replication complex (PB2, PB1, PA, NP); format: cell-based, influenza A virus
# [4] = tested on: NL11 viral polymerase activity; format: cell-based, influenza A virus
# [5] = tested on: human precision-cut lung slices (hPCLS); assay: Ex vivo cytotoxicity in hPCLS (LDH-Glo, LDH release); conditions: 10xmax: DF 50 μM, BO 50 μM, SA 1.25 μM, up to 144 h
# [6] = tested on: NL09 viral polymerase activity; format: cell-based, influenza A virus
# NFkBpS536 (NFkB p65) = format: cell-based, human
# [7] = tested on: A/NL/213/03 (H3N2) replication complex (PB2, PB1, PA, NP); format: cell-based, influenza A virus
# PDGFRα vs PDGFRβ = tested on: PDGFRα vs PDGFRβ; design: method as in PMID 19922818; conditions: cited from earlier work
# PAK3 = conditions: 0.48 μM; cited from earlier work
Molecule,significance of titer reduction over the infection (NL09 or NL11 [1]),effect on viral entry / virion localization (NL09 or NL11 [2]),% Luminescence (relative to untreated / normalized to GFP) [3],% Luminescence (relative to untreated / normalized to GFP) [4],viral titer reduction (NL09 or NL11 [1]),other results
"CC#CC(=O)N1CCC[C@H]1c1nc(-c2ccc(C(=O)Nc3ccccn3)cc2)c2c(N)nccn12 [AC, Acalabrutinib]",only significant at 24 and 48 hpi,No significant changes were detectable,82%,67%,–,–
"COc1cc(Nc2c(C#N)cnc3cc(OCCCN4CCN(C)CC4)c(OC)cc23)c(Cl)cc1Cl [BO, Bosutinib]",significant throughout the infections,no virus was detected,–,–,–,F-actin network (NL09 or NL11 [2]): not detectable
"CNC(=O)c1ccc(Nc2ncc(C(F)(F)F)c(NCc3nccnc3N(C)S(C)(=O)=O)n2)cc1 [DF, Defactinib]",only significant at 24 and 48 hpi,significant retention at the membrane and cell periphery,–,–,at least 10 fold,"cytotoxicity (LDH release) relative to positive control [5]: > 20%; reduction of polymerase reporter activity [6]: 20%; reduction of polymerase reporter activity [4]: 13%; NFkB p65 phosphorylation, pNFkB p65 / panNFkB p65 ratio (rel. to untreated) (NFkBpS536 (NFkB p65)): 64% and 68%"
"C=CC(=O)N1CCC[C@@H](n2nc(-c3ccc(Oc4ccccc4)cc3)c3c(N)ncnc32)C1 [IB, Ibrutinib]",significant throughout the infections,significant retention at the membrane and cell periphery,–,–,"more than 1,000 fold",–
"Cc1cn(-c2cc(NC(=O)c3ccc(C)c(Nc4nccc(-c5cccnc5)n4)c3)cc(C(F)(F)F)c2)cn1 [NI, Nilotinib]",significant throughout the infections,No significant changes were detectable,73% and 61%,62% and 45%,"more than 1,000 fold",% Luminescence (relative to untreated / normalized to GFP) [7]: 71% and 64%; % Luminescence (relative to untreated / normalized to GFP) [6]: 50%; selectivity for PDGFRα than PDGFRβ (PDGFRα vs PDGFRβ): > 25 fold
"CN1CCN(CCOc2cc(OC3CCOCC3)c3c(Nc4c(Cl)ccc5c4OCO5)ncnc3c2)CC1 [SA, Saracatinib]",–,No significant changes were detectable,68%,53%,–,cytotoxicity (LDH release) relative to positive control [5]: > 20%; % Luminescence (relative to untreated / normalized to GFP) [7]: 66%
CCN(CC)CCNC(=O)c1c(C)[nH]c(/C=C2\C(=O)Nc3ccc(F)cc32)c1C [sunitinib],–,–,–,–,–,effect on PAK3 activity (PAK3): not even a 30-fold higher concentration (0.48 μM) has an effect
poly(IC),–,–,–,–,–,induction of NFkBpS536 (NFkBpS536 (NFkB p65)): induced NFkBpS536
